From paper PMC9481570, “A small molecule antagonist of SMN disrupts the interaction between SMN and RNAP II” (Nature Communications, 2022)

Biological target: T1, SMN-POLR2A interaction (Homo sapiens, UniProt Q16637)
T1 construct: endogenous in cells; host or cells: HEK293
Assay: Coimmunoprecipitation of POLR2A with SMN in HEK293 cells
Type: cell-based
Details: 72 h; for inhibition of the interaction between SMN and POLR2A: 20 µM; for coimmunoprecipitation of POLR2A with SMN: series of concentrations
Protocol: HEK293 cells (ATCC, CRL-1573) were grown in DMEM (SLRI media facility) plus 10% FBS (Sigma, F1051). For analysis of SMN chemical antagonists, HEK293 cells were treated with DMSO or a series of concentrations (0, 2, 6, 10, 20, 30, 40, and 80 μM) of compound 1, compound 2 or negative compound 15 for 72 h. CRISPR-mediated SMN1 gene knockout was performed according to our previous study. Briefly, 2 μg of CRISPR/Cas9 plasmid (pCMV-Cas9-GFP), which expresses scrambled guide RNA, or guide RNA that targets the SMN1 gene exon1 (gRNA target sequence: […]) or exon3 (gRNA target sequence: […]) was transfected into HEK293 cells. Cells were sorted by BD FACSAria flow cytometry at Donnelly Center, University of Toronto 24 h after transfection, and single GFP-positive cells were seeded into a 48-well plate. The expression levels of SMN in each clone were detected by immunofluorescence. The transfection of GFP-RNase H1 R-loop-binding domain (GFP-HB) for R-loop detection into HEK293 cells was performed with the FuGENE Transfection reagent (Roche, E269A).
The experiments were performed following procedure as previously described with minor modifications. […] The supernatant cell lysates were sonicated with five on and off cycles of 0.3 s/0.7 s per mL and incubated for 30 min at 4 °C with 12.5–25 units/mL benzonase nuclease (Sigma, E1014) to remove RNA and DNA, followed by centrifugation at 18,400 × g for 30 min at 4 °C. The supernatant cell lysates were incubated with 2 μg of antibody overnight at 4 °C, followed by the addition of 20 μL of Dynabeads Protein G beads (Invitrogen, 10004D) for an additional incubation for 4 h. After washing with low-salt buffer (10 mM Tris-HCl, pH 7.9, 100 mM NaCl, and 0.1% Nonidet P-40) 3 times, 10 min/time, associated proteins were eluted into protein-loading buffer and separated by Tris 4–20% SDS-polyacrylamide (Mini-PROTEAN TGX Precast Protein Gel, BioRad, 4561096), and transferred to nitrocellulose or PVDF membranes (Immu-Blot PVDF, BioRad, 1620112 or 1620177). Transferred samples were immunoblotted with primary antibodies (POLR2A, Abcam, ab5408, monoclonal antibody, clone No. 4H8; SMN, Santa Cruz Biotechnology, sc-15320, polyclonal antibody; ACTB, Sigma, A5441, monoclonal antibody, clone No. AC-15; GFP, Invitrogen, G10362, rabbit monoclonal antibody; TUBB, Santa Cruz Biotechnology, sc-9104, polyclonal antibody) at a dilution of 1:2000 to 1:5000, followed by horseradish peroxidase-conjugated goat anti-mouse or mouse anti-rabbit secondary antibody (Jackson Immuno Research, 115-035-174 or 211-032-171) at a dilution of 1:10,000. Western blot detection was performed with enhanced chemiluminescence (Pierce ECL Western Blotting Substrate, Thermo Fisher, 32209). […]

T1 sequence (Q16637 2-294 limits assumed): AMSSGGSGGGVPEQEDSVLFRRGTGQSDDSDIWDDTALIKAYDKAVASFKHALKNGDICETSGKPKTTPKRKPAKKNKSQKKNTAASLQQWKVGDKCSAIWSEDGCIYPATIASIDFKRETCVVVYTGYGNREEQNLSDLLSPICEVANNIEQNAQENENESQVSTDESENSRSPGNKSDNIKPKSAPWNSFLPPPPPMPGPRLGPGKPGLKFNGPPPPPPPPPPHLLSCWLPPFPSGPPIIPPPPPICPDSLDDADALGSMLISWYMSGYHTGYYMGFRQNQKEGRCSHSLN

Structure (SMILES)	inhibition of the interaction between SMN and POLR2A	coimmunoprecipitation of POLR2A with SMN
CCCn1c2c(c(=N)c3c1CCC3)CCC2 [Compound 2, 4-propyl-2,3,4,5,6,7-hexahydrodicyclopenta[b,e]pyridin-8(1H)-imine]	significant inhibition	disrupted
Cn1c2c(c(=N)c3c1CCC3)CCC2 [Compound 1, 4-methyl-2,3,4,5,6,7-hexahydrodicyclopenta[b,e]pyridin-8(1H)-imine]	significant inhibition	disrupted
